Here are results for 19 compounds from ChEMBL document CHEMBL3351827, “Design, synthesis and evaluation of novel 5-phenylpyridin-2(1H)-one derivatives as potent reversible Bruton's tyrosine kinase inhibitors” (Bioorg Med Chem, 2015).

Data set [1] addresses T1, Tyrosine-protein kinase BTK (Homo sapiens, UniProt Q06187). Kind of data set: Inhibition of BTK (unknown origin) using biotin-labeled peptide substrate incubated for 1 hr by TR-FRET based HTRF kinase assay. For orientation: In TR-FRET formats the signal depends on donor and acceptor labels being close together.
Data set [2] addresses T1, Tyrosine-protein kinase BTK. Kind of data set: Inhibition of BTK in human Ramos cells assessed as reduction in IgM-induced calcium influx incubated for 20 mins by Fluo-4 dye based fluorescence assay. The data set is classed as cell-based.
Data set [3] has as its system Rattus norvegicus. In words: Inhibition of collagen-induced arthritis in Wistar rat assessed as reduction in disease progression at 20 mg/kg, po dosed for 13 days starting from day 14 post collagen challenge. The data set is classed as functional, organism-based. Details: dose 20 mg/kg.
Data set [4] has as its system Rattus norvegicus. Kind of data set: Toxicity in Wistar rat model of collagen-induced arthritis assessed reduction in body weight at 6 and 20 mg/kg, po dosed for 13 days starting from day 14 post collagen challenge. The data set is classed as organism-based. Details: dose 20 mg/kg, route oral. The note with it: in vivo, 312 h.
A short description of data set [5]: Cmax in Sprague-Dawley rat at 1 mg/kg, iv measured during 2 mins to 24 hrs period post dose by LC/MS/MS method. The data set is classed as ADME, organism-based. Also on record: dose 1 mg/kg, route intravenous. The note with it: in vivo.
Data set [6] is described as follows: Cmax in Sprague-Dawley rat at 2 mg/kg, po measured during 2 mins to 24 hrs period post dose by LC/MS/MS method. The data set is classed as ADME, organism-based. Details: dose 2 mg/kg, route oral. The note with it: in vivo.
Data set [7] can be described thus: AUC in Sprague-Dawley rat at 1 mg/kg, iv measured during 2 mins to 24 hrs period post dose by LC/MS/MS method. The data set is classed as ADME, organism-based. Details: time 0.033-24 hr, dose 1 mg/kg, route intravenous. The note with it: plasma.
A short description of data set [8]: AUC in Sprague-Dawley rat at 2 mg/kg, po measured during 2 mins to 24 hrs period post dose by LC/MS/MS method. The data set is classed as ADME, organism-based. Also on record: time upper 24 hr, time lower 0.033 hr, dose 2 mg/kg, route oral. The note with it: plasma.
Data set [9] can be described thus: Apparent volume of distribution in Sprague-Dawley rat at 1 mg/kg, iv measured during 2 mins to 24 hrs period post dose by LC/MS/MS method. The data set is classed as ADME, organism-based. Details: dose 1 mg/kg, route intravenous. The note with it: in vivo, read-out: Vz.
For data set [10], the system named is Rattus norvegicus. In words: Apparent volume of distribution in Sprague-Dawley rat at 2 mg/kg, po measured during 2 mins to 24 hrs period post dose by LC/MS/MS method. The data set is classed as ADME, organism-based. Details: dose 2 mg/kg, route oral. The note with it: in vivo.
A short description of data set [11]: Clearance in Sprague-Dawley rat at 1 mg/kg, iv measured during 2 mins to 24 hrs period post dose by LC/MS/MS method. The note with it: in vivo. The data set is classed as ADME, organism-based. Details: dose 1 mg/kg, route intravenous.
Data set [12] in a line: Clearance in Sprague-Dawley rat at 2 mg/kg, po measured during 2 mins to 24 hrs period post dose by LC/MS/MS method. The data set is classed as ADME, organism-based. Also on record: dose 2 mg/kg, route oral. The note with it: in vivo.
Data set [13] in a line: Mean residence time (0 to t) in Sprague-Dawley rat at 1 mg/kg, iv measured during 2 mins to 24 hrs period post dose by LC/MS/MS method. The data set is classed as ADME, organism-based. Details: dose 1 mg/kg, route intravenous. The note with it: in vivo.
The nature of data set [14]: Mean residence time (0 to t) in Sprague-Dawley rat at 2 mg/kg, po measured during 2 mins to 24 hrs period post dose by LC/MS/MS method. The data set is classed as ADME, organism-based. Also on record: dose 2 mg/kg, route oral. The note with it: in vivo.
Data set [15] can be described thus: Half life in Sprague-Dawley rat at 1 mg/kg, iv measured during 2 mins to 24 hrs period post dose by LC/MS/MS method. The note with it: in vivo. Details: dose 1 mg/kg, route intravenous. The data set is classed as ADME, organism-based.
Data set [16] in a line: Half life in Sprague-Dawley rat at 2 mg/kg, po measured during 2 mins to 24 hrs period post dose by LC/MS/MS method. The note with it: in vivo. Details: dose 2 mg/kg, route oral. The data set is classed as ADME, organism-based.
The nature of data set [17]: Oral bioavailability in Sprague-Dawley rat at 2 mg/kg measured during 2 mins to 24 hrs period post dose by LC/MS/MS method. The data set is classed as ADME, organism-based. The note with it: in vivo.
Data set [18] is filed under the species Rattus norvegicus. The note with it: Wistar, 6 mg/kg.
Description: Inhibition of collagen-induced arthritis in Wistar rat assessed as reduction in disease progression at 6 mg/kg, po dosed for 13 days starting from day 14 post collagen challenge

Activity calls are given as the source filed them. The calls are words filed in the database; no cut-off is given here.

T1 sequence (Q06187 whole entry): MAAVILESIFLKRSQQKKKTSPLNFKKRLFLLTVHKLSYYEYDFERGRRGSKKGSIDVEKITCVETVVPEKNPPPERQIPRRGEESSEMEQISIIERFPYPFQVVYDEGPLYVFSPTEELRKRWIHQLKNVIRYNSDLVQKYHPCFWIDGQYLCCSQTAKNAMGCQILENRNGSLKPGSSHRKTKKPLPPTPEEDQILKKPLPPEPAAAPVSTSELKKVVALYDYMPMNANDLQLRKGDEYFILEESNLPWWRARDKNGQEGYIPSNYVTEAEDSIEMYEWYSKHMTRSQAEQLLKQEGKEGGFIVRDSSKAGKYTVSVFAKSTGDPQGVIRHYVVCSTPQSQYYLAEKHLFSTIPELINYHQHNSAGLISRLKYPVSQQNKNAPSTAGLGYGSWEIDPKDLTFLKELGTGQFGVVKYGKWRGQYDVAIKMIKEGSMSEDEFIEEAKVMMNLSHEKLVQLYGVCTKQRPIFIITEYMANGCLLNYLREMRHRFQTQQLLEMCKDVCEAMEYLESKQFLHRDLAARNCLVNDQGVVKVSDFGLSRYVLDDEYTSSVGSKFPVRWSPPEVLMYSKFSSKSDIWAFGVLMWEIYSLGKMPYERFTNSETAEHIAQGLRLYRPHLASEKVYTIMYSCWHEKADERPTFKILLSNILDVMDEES

Take `Cn1cc(-c2cccc(-n3ccc4cc(C5CC5)cc(F)c4c3=O)c2CO)cc(Nc2ccc(C3CCN(C4COC4)CC3)cn2)c1=O`: the 50% inhibitory concentration (IC50) – broadly, the concentration at which inhibition is half-maximal – in [1] came out at 20 nM; in data set [2] it was 21 nM.
In turn, `Cc1c(-c2cc(Nc3ccc(N4CCN(C)CC4)cn3)c(=O)n(C)c2)cccc1N1C(=O)c2ccc(C(C)(C)C)cc2C1=O` came in with a concentration for half-maximal inhibition (IC50) in data set [1] greater than 5000 nM.
Take `Cn1cc(-c2cccc(-n3ccc4cc(C5CC5)cc(F)c4c3=O)c2CO)cc(Nc2ccc(N3CCN(C4COC4)CC3)cn2)c1=O`: the concentration for half-maximal inhibition (IC50) in data set [1] was 16 nM; in [2], 8 nM. For the same compound, the inhibition entry in [3] and in [18] was “Active” throughout. Also, in data set [4], the Activity result was “Non-toxic”. Further, the Cmax (usually the highest concentration seen after dosing) was 1090 ng/mL in [5] and 170 ng/mL in data set [6]. Also, the values for the AUC in [7] and in [8] were 1670 ng·h/mL and 1950 ng·h/mL, respectively. For the same compound, the Vd in data set [9] worked out at 9.28 L/kg. For the same compound, the Vz in data set [10] was 13.4 L/kg. Also, the clearance (commonly the rate of elimination divided by the concentration) in data set [11] is 7.83 mL/min/kg. Also, the apparent clearance CL/F (usually the apparent clearance, not corrected for the fraction that reaches the circulation) in [12] was 13.5 mL/min/kg. Besides, the MRT last – broadly, a mean duration of stay, worked out from the concentration-time curve – in data set [13] was 6.48 h; in data set [14], 8.78 h. The half-life (in general, the time in which the quantity being followed falls by half) was 13.6 h in data set [15] and 11.5 h in data set [16]. Further, in data set [17], the bioavailability (in general, dose-corrected exposure relative to a reference, in per cent) was found to be 58.4%.
On to `CN1CC(N2CCN(c3ccc(Nc4cc(-c5cccc(-n6ccc7cc(C8CC8)cc(F)c7c6=O)c5CO)cn(C)c4=O)nc3)CC2)C1`, for which the IC50 was 9 nM in data set [1] and 33 nM in data set [2].
Taken in the same sequence, the figures for `Cn1cc(-c2cccc(-n3ccc4cc(C5CC5)cc(F)c4c3=O)c2CO)cc(Nc2ccc(N3CCN(C(=O)C4CC4)CC3)cn2)c1=O` were 28 nM and 4360 nM.
The like results for `CN1CCN(c2ccc(Nc3cc(-c4cccc(-n5ccc6cc(C7CC7)ncc6c5=O)c4CO)cn(C)c3=O)nc2)CC1` were, in that order, 255 nM and 124 nM.
On to `Cc1c(NC(=O)c2ccc(C(C)(C)C)cc2)cccc1-c1cc(Nc2ccc(N3CCN(C)CC3)cn2)c(=O)n(C)c1`, for which the half-inhibitory concentration (IC50) in data set [1] is 875 nM; in [2] it was greater than 5000 nM.
The like results for `CN1CCN(c2ccc(Nc3cc(-c4cccc(-n5ccc6cc(C7CC7)ccc6c5=O)c4CO)cn(C)c3=O)nc2)CC1` were, in that order, 37 nM and 115 nM.
The like results for `Cc1c(-c2cc(Nc3ccc(N4CCN(C)CC4)cn3)c(=O)n(C)c2)cccc1-n1ccc2cc(C3CC3)cc(F)c2c1=O` were, in that order, 365 nM and 254 nM.
`CN1CCN(c2ccc(Nc3cc(-c4cccc(-n5ccc6cc(C7CC7)cc(F)c6c5=O)c4CO)cn(C)c3=O)nc2)CC1`: the inhibition entry in data set [3] was “Active”. Also, the highest concentration (Cmax) in [5] amounted to 220 ng/mL; in [6] it was 34.8 ng/mL. In addition, the figures for the AUC in [7] and in data set [8] were 404 ng·h/mL and 403 ng·h/mL, respectively. In addition, the Vd in data set [9] amounted to 50.5 L/kg. The Vz in data set [10] was found to be 86.69 L/kg. The clearance in data set [11] is 41.2 mL/min/kg. Further, in [12], the CL/F is 84.5 mL/min/kg. The figures for the mean residence time MRT last in data set [13] and in data set [14] were 6.56 h and 9.31 h, respectively. The half-life in [15] was 14.1 h; in data set [16], 11.5 h. The same compound registered a bioavailability in data set [17] of 49.9%.
Consider `CN1CCN(c2ccc(Nc3cc(-c4cccc(-n5ccc6cc(N(C)C)ncc6c5=O)c4CO)cn(C)c3=O)nc2)CC1`, for which the IC50 in data set [1] turned out to be 431 nM; in data set [2], 1030 nM.
Taken in the same sequence, the figures for `Cc1c(-c2cc(Nc3ccc(N4CCN(C5COC5)CC4)cn3)c(=O)n(C)c2)cccc1-n1ccc2cc(C3CC3)cc(F)c2c1=O` were 203 nM and 171 nM.
The like results for `CN1CCN(c2ccc(Nc3cc(-c4cccc(-n5ccc6cc(C7CC7)cc(F)c6c5=O)c4)cn(C)c3=O)nc2)CC1` were, in that order, 503 nM and 472 nM.
As to `CN1CCN(c2ccc(Nc3cc(-c4cccc(-n5ccc6nc(C7CC7)ccc6c5=O)c4CO)cn(C)c3=O)nc2)CC1`, the IC50 in [1] amounted to 564 nM; in data set [2], 3250 nM.
In [1], `Cc1c(-c2cc(Nc3ccc(N4CCN(C)CC4)cn3)c(=O)n(C)c2)cccc1-c1nc2cc(C(C)(C)C)ccc2[nH]1` displayed an IC50 greater than 5000 nM.
Same read-out and setting: then `CN1CCN(c2ccc(CNc3cc(-c4cccc(-n5ccc6cc(C7CC7)cc(F)c6c5=O)c4CO)cn(C)c3=O)cc2)CC1`, with greater than 5000 nM.
The same measure, in the same setting: the result for `CN1CCN(c2ccc(Nc3cc(-c4cccc(-n5ccc6ccccc6c5=O)c4CO)cn(C)c3=O)nc2)CC1` reads 1030 nM; that for `Cc1c(Nc2ncnc3ccccc23)cccc1-c1c[nH]c(=O)c(Nc2ccc(N3CCN(C)CC3)cn2)c1C`, greater than 5000 nM.
Take `CN1CCN(c2ccc(C(=O)Nc3cc(-c4cccc(-n5ccc6cc(C7CC7)cc(F)c6c5=O)c4CO)cn(C)c3=O)cc2)CC1`: the IC50 in [1] was 818 nM; in data set [2] it was greater than 5000 nM.
